Source: patent publication US8748462B2, “Spirocyclic GPR40 modulators” (Amgen Inc., priority 2008, dated 2014)
pEC50: −log10 of the molar value.

Legend:
human GPR40 [1] = biological target: T1, human GPR40 (Homo sapiens, UniProt O14842); experiment: Cell-based aequorin assay; details: CHO cells stably transfected with GPR40 and aequorin; 0.01% HSA
T1 construct: expressed in transfected cells; host or cells: CHO cells stably transfected with GPR40 and Aequorin
Method: Cell-based aequorin assays were employed to characterize the modulatory activity of compounds on the GPR40 signaling pathway. In an exemplary assay, CHO cells were stably transfected with both GPR40 and Aequorin (Euroscreen). Cells were detached from the tissue culture dish with 2 mL of trypsin (0.25% (w/v)). Trypsinization was halted with 28 mL of Hanks Buffered Salt Solution containing 20 mM Hepes (H/HBSS) and 0.01% fatty acid-free human serum albumin (HSA). Coelantrazine is added to 1 ug/mL, and the cells were incubated for 2 hours at room temperature. Compounds were dissolved in DMSO for preparation of 10 mM stock solutions. Compounds were diluted in H/HBSS containing 0.01% HSA. Serial dilutions of the test compounds were prepared to determine dose response.
Aequorin luminescence measurements were made using an EG&G Berthold 96-well luminometer, and the response was measured over a 20 second interval after cells and compounds were mixed. The maximum relative light units was plotted to determine dose response. The EC50 (effective concentration to reach 50% maximal response) was determined from the dose response plot.

human GPR40 [2] = biological target: T1, human GPR40; experiment: Inositol phosphate accumulation assay; format: cell-based; details: A9 cell line stably transfected with GPR40; 1 hour at 37° C.; read-out: IP3 EC50
Method: An A9 cell line stably transfected with GPR40 (A9_GPR40) was used in IP accumulation assays. A9_GPR40 cells were plated in 96-well plates containing 20,000 cells/well in DMEM containing 10% FBS. After the cells attached to the well surface, the media was replaced with inositol free DMEM containing 10% dialyzed FBS and 1 μCi, mL ^3H-inositol and incubated for 16 hours. Compounds were diluted in HBSS/10 mM LiCl containing a desired amount of HSA and added directly to cells. Following 1 hour incubation at 37° C., the media was replaced with 100 μL of 20 mM formic acid to quench the reaction. 50 μL of the extract was then added to 100 μL of SPA beads, incubated overnight, and measured on a TopCount the following day.

T1 sequence (O14842 whole entry): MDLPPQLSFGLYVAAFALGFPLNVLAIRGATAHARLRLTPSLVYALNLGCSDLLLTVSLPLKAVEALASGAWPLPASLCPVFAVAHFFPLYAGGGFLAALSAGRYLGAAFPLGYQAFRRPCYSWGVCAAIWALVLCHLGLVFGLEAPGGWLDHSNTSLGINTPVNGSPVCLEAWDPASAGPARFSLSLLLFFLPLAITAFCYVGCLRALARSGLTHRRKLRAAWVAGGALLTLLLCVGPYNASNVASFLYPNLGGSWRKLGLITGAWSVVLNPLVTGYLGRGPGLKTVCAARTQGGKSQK

Row | Compound | pEC50 (human GPR40 [1]) | pEC50 (human GPR40 [2])
1 | COc1ccc(F)c(-c2ccc(COc3ccc4c(c3)[C@]3(CC4)C[C@H]3C(=O)O)cc2C2=CCCC2)c1 [Example 20] | 6.00 to 7.00 | 7.00 to 8.00
2 | COc1cc(-c2ccc(COc3cc(F)c4c(c3F)[C@]3(CC4)C[C@H]3C(=O)O)cc2[C@@H]2CCCC2(C)C)c(F)cn1 (single isomer, unassigned) [Example 41, (1R,2R)-6′-(3-((R)-2,2-dimethylcyclopentyl)-4-(5-fluoro-2-methoxypyridin-4-yl)benzyloxy)-4′,7′-difluoro-2′,3′-dihydrospiro[cyclopropane-1,1′-indene]-2-carboxylic acid or (1S,2S)-6′-(3-((R)-2,2-dimethylcyclopentyl)-4-(5-fluoro-2-methoxypyridin-4-yl)benzyloxy)-4′,7′-difluoro-2′,3′-dihydrospiro[cyclopropane-1,1′-indene]-2-carboxylic acid] | 6.00 to 7.00 | > 8.00
3 | COc1ccc(F)c(-c2ccc(COc3ccc4c(c3F)[C@]3(CCC4)C[C@H]3C(=O)O)cc2[C@@H](OC)C(C)(C)C)c1 (single isomer, unassigned) [Example 54] | 7.00 to 8.00 | > 8.00
4 | CO[C@@H](c1cc(COc2ccc3c(c2)[C@]2(CCC3)C[C@H]2C(=O)O)ccc1-c1cccc(Cl)c1)C(C)(C)C (racemic) [Example 137] | 6.00 to 7.00 | 7.00 to 8.00
5 | COc1ccc(F)c(-c2ccc(COc3ccc4c(c3)[C@]3(CCC4)C[C@H]3C(=O)O)cc2[C@@H](OC)C(C)(C)C)c1 (single isomer, unassigned) [Example 46] | 7.00 to 8.00 | > 8.00
6 | COc1cc(-c2ccc(COc3ccc4c(c3)[C@]3(CCC4)C[C@H]3C(=O)O)cc2[C@@H]2CCCC2(C)C)c(F)cn1 [Example 48] | 7.00 to 8.00 | > 8.00
7 | COc1cc(-c2ccc(COc3ccc4c(c3F)[C@]3(CCC4)C[C@H]3C(=O)O)cc2[C@@H]2CCCC2(C)C)c(F)cn1 [Example 55] | 6.00 to 7.00 | > 8.00
8 | COc1ccc(F)c(-c2ccc(COc3ccc4c(c3)[C@]3(CCC4)CC[C@@H]3C(=O)O)cc2[C@@H]2CCCC2(C)C)c1 (single isomer, unassigned) [Example 154] | 6.00 to 7.00 | 7.00 to 8.00
9 | COc1ccc(F)c(-c2ccc(COc3cc(F)c4c(c3F)[C@]3(CC4)C[C@H]3C(=O)O)cc2[C@H]2CCCC2(C)C)c1 (single isomer, unassigned) [Example 33] | 6.00 to 7.00 | > 8.00
10 | COc1cc(-c2ccc(COc3ccc4c(c3)[C@]3(CC4)C[C@H]3C(=O)O)cc2[C@@H]2CCCC2(C)C)c(F)cn1 [Example 19, (1R,2R)-6′-(3-((R)-2,2-Dimethylcyclopentyl)-4-(5-fluoro-2-methoxypyridin-4-yl)benzyloxy)-2′,3′-dihydrospiro[cyclopropane-1,1′-indene]-2-carboxylic acid] | 7.00 to 8.00 | > 8.00
11 | COc1cc(-c2ccc(COc3ccc4c(c3)[C@]3(CC4)C[C@H]3C(=O)O)cc2[C@@H](OC)C(C)(C)C)c(F)cn1 (single isomer, unassigned) [Example 28] | 6.00 to 7.00 | > 8.00
12 | COc1ccc(F)c(-c2cc(F)c(COc3ccc4c(c3F)[C@]3(CCC4)C[C@H]3C(=O)O)cc2[C@H]2CCCC2(C)C)c1 (single isomer, unassigned) [Example 56] | 6.00 to 7.00 | > 8.00
13 | COc1ccc(F)c(-c2ccc(COc3ccc4c(c3)[C@]3(CCC4)CC[C@@H]3C(=O)O)cc2C2=CCCC2(C)C)c1 (single isomer, unassigned) [Example 158] | 6.00 to 7.00 | 7.00 to 8.00
14 | COc1cc(-c2ccc(COc3ccc4c(c3)[C@]3(CC4)CC[C@@H]3C(=O)O)cc2[C@@H]2CCCC2(C)C)c(F)cn1 (single isomer, unassigned) [Example 150] | 6.00 to 7.00 | > 8.00
15 | COc1ccc(F)c(-c2ccc(COc3ccc4c(c3)C3(CC4)CCC3C(=O)O)cc2[C@@H]2CCCC2(C)C)c1 (single isomer, unassigned) [Example 148] | 6.00 to 7.00 | 7.00 to 8.00
16 | COc1cc(-c2ccc(COc3cc(F)c4c(c3F)[C@]3(CC4)C[C@H]3C(=O)O)cc2[C@H](OC)C(C)(C)C)c(F)cn1 (single isomer, unassigned) [Example 127] | 6.00 to 7.00 | > 8.00

Row | Compound | pEC50 (human GPR40 [1]) | pEC50 (human GPR40 [2])
17 | COc1ccc(F)c(-c2c(F)cc(COc3ccc4c(c3)[C@]3(CC4)C[C@H]3C(=O)O)cc2[C@H]2CCCC2(C)C)c1 (single isomer, unassigned) [Example 16] | 7.00 to 8.00 | > 8.00
18 | COc1ccc(F)c(-c2ccc(COc3ccc4c(c3)[C@]3(CC4)CC[C@@H]3C(=O)O)cc2C2=CCCC2(C)C)c1 (single isomer, unassigned) [Example 151] | 6.00 to 7.00 | 7.00 to 8.00
19 | COc1cc(-c2ccc(COc3cc4c(cn3)CC[C@]43C[C@H]3C(=O)O)cc2[C@@H](OC)C(C)(C)C)c(F)cn1 (single isomer, unassigned) [Example 58, (2′R,5R)-3-({4-(5-Fluoro-2-methoxypyridin-4-yl)-3-1[(1S)-1-methoxy-2,2-dimethylpropyl]phenyl}methoxy)-6,7-dihydrospiro[cyclopenta[c]pyridine-5,1′-cyclopropane]-2′-carboxylic acid or (2′R,5R)-3-({4-(5-fluoro-2-methoxypyridin-4-yl)-3-[(1R)-1-methoxy-2,2-dimethylpropyl]phenyl}methoxy)-6,7-dihydrospiro[cyclopenta[c]pyridine-5,1′-cyclopropane]-2′-carboxylic acid] | 6.00 to 7.00 | > 8.00
20 | COc1ccc(F)c(-c2ccc(COc3ccc4c(c3)C3(CC4)CCC3C(=O)O)cc2C(OC)C(C)(C)C)c1 (single isomer, unassigned) [Example 149] | 6.00 to 7.00 | > 8.00
21 | COc1ccc(F)c(-c2ccc(COc3ccc4c(c3)[C@]3(CC4)C[C@H]3C(=O)O)cc2[C@@H]2CCCC2(C)C)c1 (single isomer, unassigned) [Example 9] | 6.00 to 7.00 | 7.00 to 8.00
22 | COc1ccc(F)c(-c2ccc(COc3ccc4c(c3)[C@]3(CC4)C[C@H]3C(=O)O)cc2[C@H]2CCCCC2(C)C)c1 (single isomer, unassigned) [Example 15] | 7.00 to 8.00 | > 8.00
23 | COc1cc(-c2ccc(COc3ccc4c(c3F)[C@]3(CC4)C[C@H]3C(=O)O)cc2[C@@H]2CCCC2(C)C)c(F)cn1 (single isomer, unassigned) [Example 32] | 6.00 to 7.00 | > 8.00
24 | COc1cc(-c2ccc(COc3ccc4c(c3)[C@]3(CCC4)C[C@H]3C(=O)O)cc2[C@@H](OC)C(C)(C)C)c(F)cn1 (single isomer, unassigned) [Example 44] | 7.00 to 8.00 | > 8.00
25 | COc1cc(-c2ccc(COc3cc4c(cn3)CC[C@@]43C[C@@H]3C(=O)O)cc2[C@@H](OC)C(C)(C)C)c(F)cn1 (single isomer, unassigned) [Example 59, (2′S,5S)-3-({4-(5-Fluoro-2-methoxypyridin-4-yl)-3-[(1S)-1-methoxy-2,2-dimethylpropyl]phenyl}methoxy)-6,7-dihydrospiro[cyclopenta[c]pyridine-5,1′-cyclopropane]-2′-carboxylic acid or (2′S,5S)-3-({4-(5-fluoro-2-methoxypyridin-4-yl)-3-[(1R)-1-methoxy-2,2-dimethylpropyl]phenyl}methoxy)-6,7-dihydrospiro[cyclopenta[c]pyridine-5,1′-cyclopropane]-2′-carboxylic acid] | 6.00 to 7.00 | 6.00 to 7.00
26 | CCCOc1ccc(COc2ccc3c(c2)[C@]2(CCC3)C[C@H]2C(=O)O)cc1[C@@H]1CCCC1(C)C (single isomer, unassigned) [Example 129] | 5.00 to 6.00 | 6.00 to 7.00
27 | COc1ccc(F)c(-c2c(F)cc(COc3ccc4c(c3)[C@]3(CC4)C[C@H]3C(=O)O)cc2[C@@H]2CCCC2(C)C)c1 (single isomer, unassigned) [Example 18] | 6.00 to 7.00 | > 8.00
28 | COc1cc(-c2ccc(COc3ccc4c(c3F)[C@]3(CCC4)C[C@H]3C(=O)O)cc2[C@@H](OC)C(C)(C)C)c(F)cn1 (single isomer, unassigned) [Example 53] | 7.00 to 8.00 | > 8.00
29 | COc1ccc(F)c(-c2ccc(COc3ccc4c(c3F)[C@@]3(CCC4)C[C@@H]3C(=O)O)cc2[C@H]2CCCC2(C)C)c1 (single isomer, unassigned) [Example 52] | < 5.00 | 5.00 to 6.00
30 | COc1cccc(-c2ccc(COc3ccc4c(c3)[C@]3(CCC4)C[C@H]3C(=O)O)cc2[C@H](OC)C(C)(C)C)c1F (racemic) [Example 134] | 6.00 to 7.00 | 7.00 to 8.00
31 | COc1ccc(F)c(-c2cc(F)c(COc3ccc4c(c3)[C@]3(CC4)C[C@H]3C(=O)O)cc2[C@H]2CCCC2(C)C)c1 (single isomer, unassigned) [Example 14] | 6.00 to 7.00 | > 8.00
